# Experimental data reported in patent publication US20230092890A1, “1, 3, 4-Oxadiazole derivative compounds as histone deacetylase 6 inhibitor, and the pharmaceutical composition comprising the same” (Chong Kun Dang Pharmaceutical Corp., priority 2019, published 2023).
# Tests used:
# HDAC6 human recombinant = biological target: T1, HDAC6 human recombinant (Homo sapiens, UniProt Q9UBN7); test: HDAC enzyme activity inhibition (in vitro), HDAC6 assay; assay type: biochemical; conditions: samples at 0.1, 1, 10, 100 and 1000 nM; 37° C. 60 minutes; fluorescence Ex 390, Em 460; read-out: HDAC6 IC50
# T1 construct: purchased Calbiochem 382180
# T1 sequence (Q9UBN7 1-1215): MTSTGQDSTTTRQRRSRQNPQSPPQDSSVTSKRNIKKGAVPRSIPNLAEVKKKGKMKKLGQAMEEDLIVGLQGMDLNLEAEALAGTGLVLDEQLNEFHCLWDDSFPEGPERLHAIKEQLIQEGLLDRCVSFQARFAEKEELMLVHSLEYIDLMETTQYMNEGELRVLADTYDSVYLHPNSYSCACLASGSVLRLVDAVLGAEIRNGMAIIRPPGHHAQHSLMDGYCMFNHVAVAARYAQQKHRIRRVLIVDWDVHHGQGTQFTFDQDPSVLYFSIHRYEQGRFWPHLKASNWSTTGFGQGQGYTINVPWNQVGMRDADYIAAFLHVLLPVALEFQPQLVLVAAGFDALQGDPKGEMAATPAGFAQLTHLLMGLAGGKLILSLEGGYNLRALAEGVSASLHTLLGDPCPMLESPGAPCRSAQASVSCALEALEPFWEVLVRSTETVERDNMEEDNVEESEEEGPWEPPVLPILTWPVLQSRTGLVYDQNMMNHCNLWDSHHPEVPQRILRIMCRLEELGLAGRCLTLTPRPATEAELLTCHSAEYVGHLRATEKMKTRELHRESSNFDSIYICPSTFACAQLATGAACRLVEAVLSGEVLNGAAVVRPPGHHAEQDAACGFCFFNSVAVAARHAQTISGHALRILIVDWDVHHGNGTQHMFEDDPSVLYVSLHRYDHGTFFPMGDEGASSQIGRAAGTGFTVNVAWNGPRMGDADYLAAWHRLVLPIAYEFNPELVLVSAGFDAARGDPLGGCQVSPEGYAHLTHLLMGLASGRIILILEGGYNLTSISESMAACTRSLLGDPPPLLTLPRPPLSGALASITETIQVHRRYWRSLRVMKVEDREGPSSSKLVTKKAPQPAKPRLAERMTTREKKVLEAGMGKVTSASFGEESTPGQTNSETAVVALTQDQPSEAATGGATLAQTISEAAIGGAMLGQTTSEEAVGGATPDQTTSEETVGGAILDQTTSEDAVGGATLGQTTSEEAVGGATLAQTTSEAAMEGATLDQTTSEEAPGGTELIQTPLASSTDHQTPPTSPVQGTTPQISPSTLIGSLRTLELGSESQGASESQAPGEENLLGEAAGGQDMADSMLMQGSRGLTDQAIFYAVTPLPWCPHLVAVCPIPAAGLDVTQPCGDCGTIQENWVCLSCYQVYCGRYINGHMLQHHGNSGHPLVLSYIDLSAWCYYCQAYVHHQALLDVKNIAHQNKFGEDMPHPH
# In short: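 Fluorescence (Ex 390, Em 460) read after a 37° C, 60 min enzyme reaction and a further 30 min developer step at 37° C. Uses recombinant human HDAC6; HDAC1 arm dosed at 100, 1000, 10000 nM.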
# HDAC1 = biological target: T2, HDAC1 (Homo sapiens, UniProt Q13547); test: HDAC enzyme activity inhibition (in vitro), HDAC1 Fluorimetric Drug Discovery Assay Kit; assay type: biochemical; conditions: samples at 100, 1000 and 10000 nM; 37° C. 60 minutes; fluorescence Ex 390, Em 460; read-out: HDAC1 IC50
# T2 construct: purchased Enzolifesciences BML-AK511
# T2 sequence (Q13547 whole entry): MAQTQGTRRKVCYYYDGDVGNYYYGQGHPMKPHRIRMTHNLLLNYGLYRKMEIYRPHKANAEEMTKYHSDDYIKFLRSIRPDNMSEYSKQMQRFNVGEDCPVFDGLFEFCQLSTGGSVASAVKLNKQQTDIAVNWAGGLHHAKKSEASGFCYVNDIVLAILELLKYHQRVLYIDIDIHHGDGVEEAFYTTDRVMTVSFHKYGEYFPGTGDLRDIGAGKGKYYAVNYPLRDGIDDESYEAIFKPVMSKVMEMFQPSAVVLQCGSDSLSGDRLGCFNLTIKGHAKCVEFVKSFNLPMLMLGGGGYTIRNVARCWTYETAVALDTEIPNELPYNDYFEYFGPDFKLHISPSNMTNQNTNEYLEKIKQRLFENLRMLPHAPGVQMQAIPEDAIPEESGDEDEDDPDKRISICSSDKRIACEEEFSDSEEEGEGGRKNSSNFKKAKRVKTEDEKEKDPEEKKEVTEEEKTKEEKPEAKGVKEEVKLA
# In short: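 Fluorimetric read-out (Ex 390, Em 460) after a 60 min 37° C enzyme reaction and 30 min 37° C developer step. Tested levels: 0.1-1000 nM (0.1, 1, 10, 100, 1000) on recombinant human HDAC6; 100, 1000 and 10000 nM on HDAC1 kit enzyme.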
SMILES,IC50 (HDAC6 human recombinant),IC50 (HDAC1)
"O=c1n(Cc2ccc(-c3nnc(C(F)F)o3)cc2F)c2ncccc2n1C1CCN(C2COC2)CC1 [Compound 104, 3-(4-(5-(difluoromethyl)-1,3,4-oxadiazole-2-yl)-2-fluorobenzyl)-1-(1-(oxetan-3-yl)piperidine-4-yl)-1,3-dihydro-2H-imidazo[4,5-b]pyridine-2-one]",283 nM,> 10000 nM
"O=C(c1ccc(C(F)(F)F)cc1)N1CCC(n2c(=O)n(Cc3ccc(-c4nnc(C(F)F)o4)cn3)c3cc(F)ccc32)CC1 [Compound 62, 3-((5-(5-(difluoromethyl)-1,3,4-oxadiazole-2-yl)pyridine-2-yl)methyl)-5-fluoro-1-(1-(4-(trifluoromethyl)benzoyl)piperidine-4-yl)-1,3-dihydro-2H-benzo[d]imidazole-2-one]",259 nM,> 10000 nM
"Cn1c(=O)n(Cc2ccc(-c3nnc(C(F)F)o3)cc2F)c2cc(F)c(-c3ccc(CN4CCOCC4)nc3)cc21 [Compound 340, 1-(4-(5-(difluoromethyl)-1,3,4-oxadiazole-2-yl)-2-fluorobenzyl)-6-fluoro-3-methyl-5-(6-(morpholinomethyl)pyridine-3-yl)-1,3-dihydro-2H-benzo[d]imidazole-2-one]",65 nM,> 10000 nM
"O=c1n(Cc2ccc(-c3nnc(C(F)F)o3)cn2)c2cc(Cl)ccc2n1C1CCN(CC(F)(F)F)CC1 [Compound 236, 5-chloro-3-((5-(5-(difluoromethyl)-1,3,4-oxadiazole-2-yl)pyridine-2-yl)methyl)-1-(1-(2,2,2-trifluoroethyl)piperidine-4-yl)-1,3-dihydro-2H-benzo[d]imidazole-2-one]",68 nM,> 10000 nM
"CC(=O)N1CCC(n2c(=O)n(Cc3ccc(-c4nnc(C(F)F)o4)cc3)c3ncccc32)CC1 [Compound 186, 1-(1-acetylpiperidine-4-yl)-3-(4-(5-(difluoromethyl)-1,3,4-oxadiazole-2-yl)benzyl)-1,3-dihydro-2H-imidazo[4,5-b]pyridine-2-one]",554 nM,> 10000 nM
"O=c1oc2cc(-c3ccncc3)ccc2n1Cc1ccc(-c2nnc(C(F)F)o2)cn1 [Compound 305, 3-((5-(5-(difluoromethyl)-1,3,4-oxadiazole-2-yl)pyridine-2-yl)methyl)-6-(pyridine-4-yl) benzo[d]oxazole-2(3H)-one]",50 nM,> 10000 nM
O=c1n(Cc2ccc(-c3nnc(C(F)F)o3)cn2)c2ncccc2n1C1CCN(C2COC2)CC1 [Compound 108],148 nM,> 10000 nM
"O=c1n(CCN2CCOCC2)c2ccccc2n1Cc1ccc(-c2nnc(C(F)F)o2)cc1F [Compound 2, 1-(4-(5-(difluoromethyl)-1,3,4-oxadiazole-2-yl)-2-fluorobenzyl)-3-(2-morpholinoethyl)-1,3-dihydro-2H-benzo[d]imidazole-2-one]",203 nM,> 10000 nM
"CN1CCC(Cn2c(=O)n(Cc3ccc(-c4nnc(C(F)F)o4)cn3)c3ccccc32)CC1 [Compound 10, 1-((5-(5-(difluoromethyl)-1,3,4-oxadiazole-2-yl)pyridine-2-yl)methyl)-3-((1-methylpiperidine-4-yl)methyl)-1,3-dihydro-2H-benzo[d]imidazole-2-one]",222 nM,> 10000 nM
"CN1CCN(c2ccc(-c3cc4oc(=O)n(Cc5ccc(-c6nnc(C(F)F)o6)cn5)c4cc3F)cn2)CC1 [Compound 346, 3-((5-(5-(difluoromethyl)-1,3,4-oxadiazole-2-yl)pyridine-2-yl)methyl)-5-fluoro-6-(6-(4-methylpiperazine-1-yl)pyridine-3-yl)benzo[d]oxazole-2(3H)-one]",47 nM,> 10000 nM
"O=c1n(Cc2ccc(-c3nnc(C(F)F)o3)cn2)c2ccc(F)cc2n1C1CCN(C2CCOCC2)CC1 [Compound 44, 1-((5-(5-(difluoromethyl)-1,3,4-oxadiazole-2-yl)pyridine-2-yl)methyl)-5-fluoro-3-(1-(tetrahydro-2H-pyran-4-yl)piperidine-4-yl)-1,3-dihydro-2H-benzo[d]imidazole-2-one]",76 nM,> 10000 nM

# Now those with a lower IC50 (HDAC6 human recombinant), led by results:
IC50 (HDAC6 human recombinant),IC50 (HDAC1),SMILES
6 nM,> 10000 nM,"CN1CCC(n2c(=O)n(Cc3ccc(-c4nnc(C(F)F)o4)cn3)c3cc(F)c(-c4cccc5[nH]ccc45)cc32)CC1 [Compound 217, 1-((5-(5-(difluoromethyl)-1,3,4-oxadiazole-2-yl)pyridine-2-yl)methyl)-6-fluoro-5-(1H-indole-4-yl)-3-(1-methylpiperidine-4-yl)-1,3-dihydro-2H-benzo[d]imidazole-2-one]"
31 nM,> 10000 nM,"O=c1n(Cc2ccc(-c3nnc(C(F)F)o3)cn2)c2cc(C(F)(F)F)ccc2n1C1CCN(C2COC2)CC1 [Compound 90, 3-((5-(5-(difluoromethyl)-1,3,4-oxadiazole-2-yl)pyridine-2-yl)methyl)-1-(1-(oxetan-3-yl)piperidine-4-yl)-5-(trifluoromethyl)-1,3-dihydro-2H-benzo[d]imidazole-2-one]"
31 nM,> 10000 nM,"CN1CCC(n2c(=O)n(Cc3ccc(-c4nnc(C(F)F)o4)cc3F)c3ccc(-c4cccnc4)cc32)CC1 [Compound 139, 1-(4-(5-(difluoromethyl)-1,3,4-oxadiazole-2-yl)-2-fluorobenzyl)-3-(1-methylpiperidine-4-yl)-5-(pyridine-3-yl)-1,3-dihydro-2H-benzo[d]imidazole-2-one]"
38 nM,> 10000 nM,"CN1CCC(n2c(=O)n(Cc3ccc(-c4nnc(C(F)F)o4)cn3)c3cc(C(F)(F)F)ccc32)CC1 [Compound 89, 3-((5-(5-(difluoromethyl)-1,3,4-oxadiazole-2-yl)pyridine-2-yl)methyl)-1-(1-methylpiperidine-4-yl)-5-(trifluoromethyl)-1,3-dihydro-2H-benzo[d]imidazole-2-one]"
31 nM,> 10000 nM,"CN1CCC(n2c(=O)n(Cc3ccc(-c4nnc(C(F)F)o4)cc3)c3cc(Cl)c(Cl)cc32)CC1 [Compound 85, 5,6-dichloro-1-(4-(5-(difluoromethyl)-1,3,4-oxadiazole-2-yl)benzyl)-3-(1-methylpiperidine-4-yl)-1,3-dihydro-2H-benzo[d]imidazole-2-one]"
15 nM,> 10000 nM,"CN1CCN(c2cc3oc(=O)n(Cc4ccc(-c5nnc(C(F)F)o5)cn4)c3cc2F)CC1 [Compound 317, 3-((5-(5-(difluoromethyl)-1,3,4-oxadiazole-2-yl)pyridine-2-yl)methyl)-5-fluoro-6-(4-methylpiperazine-1-yl)benzo[d]oxazole-2(3H)-one]"
29 nM,> 10000 nM,"O=c1n(Cc2ccc(-c3nnc(C(F)F)o3)cn2)c2cc(F)c(N3CCN(Cc4cccc5[nH]ccc45)CC3)cc2n1C1COC1 [Compound 322, 5-(4-((1H-indole-4-yl)methyl)piperazine-1-yl)-1-((5-(5-(difluoromethyl)-1,3,4-oxadiazole-2-yl)pyridine-2-yl)methyl)-6-fluoro-3-(oxetan-3-yl)-1,3-dihydro-2H-benzo[d]imidazole-2-one]"
40 nM,> 10000 nM,"Cn1c(=O)n(Cc2ccc(-c3nnc(C(F)F)o3)cn2)c2cc(F)c(-c3ccoc3)cc21 [Compound 168, 1-((5-(5-(difluoromethyl)-1,3,4-oxadiazole-2-yl)pyridine-2-yl)methyl)-6-fluoro-5-(furan-3-yl)-3-methyl-1,3-dihydro-2H-benzo[d]imidazole-2-one]"
33 nM,> 10000 nM,"O=c1oc2cc(-c3ccc(N4CCN(C5COC5)CC4)nc3)c(F)cc2n1Cc1ccc(-c2nnc(C(F)F)o2)cn1 [Compound 350, 3-((5-(5-(difluoromethyl)-1,3,4-oxadiazole-2-yl)pyridine-2-yl)methyl)-5-fluoro-6-(6-(4-(oxetan-3-yl)piperazine-1-yl)pyridine-3-yl)benzo[d]oxazole-2(3H)-one]"
